Measurements: patent publication US7683168B2, “Compositions of novel opioid compounds and method of use thereof” (priority 2005, dated 2010)

Tests used:
[1] = biological target: T1, κ opioid receptor (Cavia porcellus, UniProt P41144); assay: radioligand binding, κ opioid receptor, guinea pig cerebellum; conditions: tritium-labeled U69593
T1 construct: tissue Pel-Freeze Biological Inc. (Rogers, Ark.); host or cells: guinea pig cerebellum

[2] = biological target: T2, δ opioid receptor (Rattus norvegicus, UniProt P33533); assay: radioligand binding, δ opioid receptor, rat brain membranes; conditions: cell marked (rat), tritium-labeled Deltorphin II
T2 construct: tissue Pel-Freeze Biological Inc. (Rogers, Ark.); host or cells: rat whole brain
T2 sequence (P33533 whole entry): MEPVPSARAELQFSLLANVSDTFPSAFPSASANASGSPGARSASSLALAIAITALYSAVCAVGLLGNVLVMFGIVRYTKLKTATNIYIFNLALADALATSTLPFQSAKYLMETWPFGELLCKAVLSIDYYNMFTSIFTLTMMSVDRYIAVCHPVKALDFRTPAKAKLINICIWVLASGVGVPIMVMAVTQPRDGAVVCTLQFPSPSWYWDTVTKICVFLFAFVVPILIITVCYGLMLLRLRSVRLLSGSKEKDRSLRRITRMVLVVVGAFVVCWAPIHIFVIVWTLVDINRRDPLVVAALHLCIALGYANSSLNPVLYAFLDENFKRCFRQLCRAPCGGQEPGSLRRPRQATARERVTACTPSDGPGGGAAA

[3] = test system: seizure-like convulsions in mice; assay: mouse seizure-like convulsions; assay type: in vivo; conditions: 10 mg/kg IV
Summary of the method: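 Male CD-1 mice (Charles River, Raleigh, N.C.) of 20-25 g were dosed and watched for one hour to detect seizure-like convulsions mediated by central delta receptors. An event was counted when clonic or tonic/clonic muscle movements involved the whole body, usually followed by brief catalepsy, judged by no attempt to withdraw front paws from a bar 2-3 inches above the floor.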

[4] = rat analgesia; assay type: in vivo
[5] = test system: tail-pinch antinociception in mice; conditions: in vivo, iv, 10 mg/kg
[6] = biological target: T3, μ opioid receptor (Rattus norvegicus, UniProt P33535); assay: radioligand binding, μ opioid receptor, rat brain membranes; conditions: cell marked (rat), tritium-labeled DAMGO
T3 construct: tissue Pel-Freeze Biological Inc. (Rogers, Ark.); host or cells: rat whole brain
T3 sequence (P33535 whole entry): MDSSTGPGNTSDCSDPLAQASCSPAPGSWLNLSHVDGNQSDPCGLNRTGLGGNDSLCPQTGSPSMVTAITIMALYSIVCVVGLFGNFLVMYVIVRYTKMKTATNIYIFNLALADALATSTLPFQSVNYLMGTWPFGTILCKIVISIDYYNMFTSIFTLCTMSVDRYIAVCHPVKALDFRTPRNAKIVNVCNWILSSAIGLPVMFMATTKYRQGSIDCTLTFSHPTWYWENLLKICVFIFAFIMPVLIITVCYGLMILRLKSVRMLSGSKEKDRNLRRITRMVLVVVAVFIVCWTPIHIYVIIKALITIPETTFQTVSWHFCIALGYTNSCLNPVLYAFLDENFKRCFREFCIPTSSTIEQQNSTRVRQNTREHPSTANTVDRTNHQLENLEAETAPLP

[7] = test system: mouse vas deferens; assay: electrically stimulated mouse vas deferens (MVD) ED50; assay type: cell-based; conditions: ED50, inhibition of electrically induced contractions

T1 sequence (P41144 whole entry): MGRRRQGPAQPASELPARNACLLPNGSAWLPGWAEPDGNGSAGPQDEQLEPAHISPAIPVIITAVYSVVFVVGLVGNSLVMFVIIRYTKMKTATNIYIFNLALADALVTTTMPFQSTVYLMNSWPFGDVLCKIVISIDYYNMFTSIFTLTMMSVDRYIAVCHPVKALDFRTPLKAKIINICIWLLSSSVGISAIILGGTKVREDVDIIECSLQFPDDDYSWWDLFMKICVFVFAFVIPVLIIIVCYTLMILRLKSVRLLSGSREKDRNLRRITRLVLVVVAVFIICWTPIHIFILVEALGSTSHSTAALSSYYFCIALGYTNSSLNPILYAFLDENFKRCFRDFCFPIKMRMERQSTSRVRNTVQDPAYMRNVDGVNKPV

C=CCN1C[C@H](C)N(C(c2cccc(O)c2)c2cccc(C(=O)N3CCCN(C)CC3)c2)C[C@H]1C (stereo partly shown)
Ki [1]: 1.93 nM | Ki [2]: 5.45 nM | Seiz. [3]: 0% | rat analg. [4]: no rat analg. | mouse TP % MPE [5]: 0% 10 mg/kg IV (mouse TP- 54% MPE; no rat analg.) | Ki [6]: 1.58 nM | EC50 [7]: 26.3 nM
